# Source: US20260191852A1, “COMBINATION OF SUBSTITUTED 2,4 DIAMINO-QUINOLINE COMPOUNDS AND MEK INHIBITORS FOR USE IN THE TREATMENT OF LIVER CANCERS” (GENFIT, priority 2022, published 2026)
# Structures can show the parent of a compound that is named as a salt. Where two headings read alike, the source gives them in different places.
# Assays:
# [1] = tested on: intrahepatic cholangiocarcinoma cell line HuCCT1 (KRAS G12D); assay: Combination effect of binary drug-drug associations on HuCCT1 cell viability, Loewe additivity model (SynergyFinder); type: cell-based; conditions: growth inhibition of HuCCT1
# Method: The HuCCT1 cell viability assay with binary drug-drug association was performed as described in example 1. The drug-drug binary associations of compounds 2-2+Trametinib and HCQ+Trametinib were tested in a checkerboard fashion in Greiner Bio-one pClear® 96-well plates (Dutscher #655098). The concentration ranges were selected nearby and surrounding the IC50 values of each individual compound. Compound 2-2 in combination with Trametinib was tested at 1.28 μM, 1.6 μM, 2.0 μM, 2.5 μM and 3.125 μM. HCQ [747-36-4] in combination with Trametinib was tested at 15 μM, 20 μM, 30 μM, 45 μM, 60 μM. […] The combination effects of both binary drug-drug association compound 2-2+Trametinib and HCQ+Trametinib were analyzed with two softwares: MacSynergy™ II (1) and SynergyFinder. […]
# The combination effects of the drug-drug associations of compound 2-2+Trametinib (Table 2) and HCQ+Trametinib (Table 3) were evaluated according to the Loewe additivity model using SynergyFinder for their respective capacities to inhibit the growth of intra-hepatic cholangiocarcinoma cell line HuCCT1.
# The HuCCT1 cell viability assay with binary drug-drug association was performed as described in example 1. […] The combination effects of both binary drug-drug association compound 2-2+Cobimetinib and HCQ+Cobimetinib were analyzed with two softwares: MacSynergy™ II (1) and SynergyFinder (2). […]
# [2] = tested on: intrahepatic cholangiocarcinoma cell line HuCCT1 (KRAS G12D); assay: Combination effect of binary drug-drug associations on HuCCT1 cell viability, Bliss independence model (MacSynergy II); type: cell-based; conditions: growth inhibition of HuCCT1
# Method: The HuCCT1 cell viability assay with binary drug-drug association was performed as described in example 1. The drug-drug binary associations of compounds 2-2+Trametinib and HCQ+Trametinib were tested in a checkerboard fashion in Greiner Bio-one pClear® 96-well plates (Dutscher #655098). The concentration ranges were selected nearby and surrounding the IC50 values of each individual compound. Compound 2-2 in combination with Trametinib was tested at 1.28 μM, 1.6 μM, 2.0 μM, 2.5 μM and 3.125 μM. HCQ [747-36-4] in combination with Trametinib was tested at 15 μM, 20 μM, 30 μM, 45 μM, 60 μM. Trametinib (Selleckchem #S2673, [871700-17-3]) in combination with compound 2-2 or in combination with HCQ was tested in both cases at 0.005 μM, 0.03 μM, 6.0 μM, 15 μM, 30 μM, 60 μM, 90 μM. The combination effects of both binary drug-drug association compound 2-2+Trametinib and HCQ+Trametinib were analyzed with two softwares: MacSynergy™ II (1) and SynergyFinder. (2) MacSynergy™ II was used to analyze the combination effect according to the Bliss independence model which assumes probabilistic statistical independence between the combined compounds.(3) The main assumption of the Bliss independence principle is that two or more combined drugs act independently from each other with distinct mode of action. SynergyFinder was used to analyze the combination effect according to the Loewe additivity model which is based on its principle of a sham drug-drug combination which assumes no interaction when a compound is combined with itself.(4)
# The combination effects of the drug-drug associations of compound 2-2+Trametinib and hydroxychloroquine+Trametinib were evaluated according to the Bliss independence model using MacSynergy™ II for their respective capacities to inhibit the growth of intrahepatic cholangiocarcinoma cell line HuCCT1 (Table 4).
# The HuCCT1 cell viability assay with binary drug-drug association was performed as described in example 1. The binary drug-drug associations of compounds 2-2+Cobimetinib and HCQ+Cobimetinib were tested in a checkerboard fashion in Greiner Bio-one pClear® 96-well plates (Dutscher #655098). The concentration ranges were selected nearby and surrounding the IC50 values of each individual compound. Compound 2-2 in combination with Cobimetinib was tested at 1.28 μM, 1.6 μM, 2.0 μM, 2.5 μM and 3.125 μM. HCQ [747-36-4] in combination with Cobimetinib was tested at 15 μM, 20 μM, 30 μM, 45 μM, 60 μM. Cobimetinib (Selleckchem #S8041, [934660-93-2]) in combination with compound 2-2 or in combination with HCQ was tested in both cases at 0.10 μM, 1.0 μM, 10 μM, 30 μM, 60 μM, 80 μM, 100 μM. The combination effects of both binary drug-drug association compound 2-2+Cobimetinib and HCQ+Cobimetinib were analyzed with two softwares: MacSynergy™ II (1) and SynergyFinder (2). […]
# The combination effects of the binary drug-drug associations of compound 2-2+Cobimetinib and hydroxychloroquine+Cobimetinib were evaluated according to the Bliss independence model using MacSynergy™ II for their respective capacities to inhibit the growth of intrahepatic cholangiocarcinoma cell line HuCCT1 (Table 7).
# [3] = tested on: intrahepatic cholangiocarcinoma cell line HuCCT1 (KRAS G12D)
# Method: (§1) Cell culture: HuCCT1 cell line harboring KRAS G12D mutation (JCRB Cell Bank #JCRB0425) was maintained in RPMI medium (Dutscher #L0498-500) containing 1% penicillin streptomycin (Dutscher #P06-07100) and 10% fetal bovine serum (Dutscher #SV30160.03C) and were cultured at 37° C. with 5% CO2 in humidified cells incubator.
# (§2) HuCCT1 cells were plated at 4.10^3 cells per well in Greiner Bio-one pClear® P96 well plates (Dutscher #655098) with 80 μL of culture media. […] Cell viability was assessed 72 hours post molecular treatment by CellTiter-Glo® luminescent cell viability assay (Promega #G7573) according to the manufacturer protocol and using an Infinity F200 Pro luminometer (Tecan). […] IC50 values were determined as the dose of compound required to reduce luminescent values to 50% of the reference signal obtained for untreated cell cultures. Raw data were analyzed using GraphPad Prism Software v9.4 (GraphPad Software, Inc. La Jolla, CA). For all experiments, analyzed data are shown as mean of triplicate and four independent experiments.
# [4] = tested on: intrahepatic cholangiocarcinoma cell line HuCCT1 (KRAS G12D); assay: HuCCT1 cell viability assay (CellTiter-Glo), single compounds, 72 hours; conditions: for IC50: Homo sapiens, HuCCT-1, 72 h, read-out: Cell Viability assay IC50
# Method: as §1, §2
SMILES,"combination effect when associated with Cobimetinib, Loewe model [1]","combination effect when associated with Cobimetinib, Bliss model [2]",combination effect when associated with Trametinib [2],cytotoxic activity against HuCCT1 [3],IC50 [4] [µM],"combination effect when associated with a MEK inhibitor (e.g., Trametinib, Cobimetinib), Bliss independence model [2]","cytotoxic activity against HuCCT1 ([4]; HuCCT1, 72 hours)"
"CCN(CCO)CCCC(C)Nc1ccnc2cc(Cl)ccc12 (stereo not drawn) [Hydroxychloroquine, hydroxychloroquine sulfate]",overall additive effect,minor synergy without significant impact in vivo,only an additive effect,dose-response cytotoxic activity,27.2 ± 1.2,–,–
"CC(C)(C)NC1CCN(c2cc(NCc3ccc(Cl)cc3)nc3ccccc23)CC1 [Compound 2-2, 2-(4-chlorobenzylamino)-4-(4-tert-butylaminopiperidin-1-yl)-quinoline]",overall additive effect,significant synergy combination effect,significant synergy combination effect,–,2.2 ± 0.2,significant synergy combination effect,dose-response cytotoxic activity
CC(=O)Nc1cccc(-n2c(=O)n(C3CC3)c(=O)c3c(Nc4ccc(I)cc4F)n(C)c(=O)c(C)c32)c1 [Trametinib],–,–,–,dose-response cytotoxic activity,0.31 ± 0.26,–,–
O=C(c1ccc(F)c(F)c1Nc1ccc(I)cc1F)N1CC(O)([C@@H]2CCCCN2)C1 [Cobimetinib],–,–,–,dose-response cytotoxic activity,1.2 ± 0.8,–,–
